We go through 6 compounds from ChEMBL document CHEMBL4811292, “Discovery of novel β-turn mimetic-based peptides as novel quorum sensing inhibitors of gram-negative bacteria” (Bioorg Med Chem Lett, 2021).

Assay [1] in a line: Inhibition of quorum sensing system lasB in Pseudomonas aeruginosa transfected with lasB-gfp assessed as reduction of GFP production.
A short description of assay [2]: Inhibition of quorum sensing system in Chromobacterium violaceum ATCC 31532 assessed as reduction in violacein production at 100 uM.
The test system of assay [3] is Pseudomonas aeruginosa. The experiment in a line: Antibiofilm activity against Pseudomonas aeruginosa PA14 assessed as inhibition of biofilm formation at 15 to 50 uM measured after 48 hrs. Particulars: dose 15-50 µM. It is filed as functional, organism-based.
Assay [4] can be described thus: Inhibition of quorum sensing system in Chromobacterium violaceum ATCC 31532 assessed as reduction in violacein production at <100 uM. Particulars: dose microM <100.
Assay [5] deals with Staphylococcus epidermidis. Kind of assay: Inhibition of quorum sensing system in Staphylococcus epidermidis.
The test system of assay [6] is Pseudomonas aeruginosa. The experiment in a line: Antibacterial activity against Pseudomonas aeruginosa assessed as inhibition of cell growth. The assay is classed as functional.
The subject of assay [7] is Pseudomonas aeruginosa. Kind of assay: Antibiofilm activity against Pseudomonas aeruginosa PA14 assessed as inhibition of biofilm formation at 15 to 50 uM measured after 48 hrs relative to control. The conditions noted are these: dose 15-50 µM. It is filed as functional.
Assay [8] relates to Pseudomonas aeruginosa. The experiment in a line: Inhibition of quorum sensing system lasB in Pseudomonas aeruginosa transfected with lasB-gfp assessed as reduction of GFP production at 10 uM.
Assay [9] has as its system Pseudomonas aeruginosa. The experiment in a line: Potency index, ratio of 4NPO IC50 to test compound IC50 for inhibition of quorum sensing system lasB in Pseudomonas aeruginosa transfected with lasB-gfp.
In assay [10] the test system is Pseudomonas aeruginosa. Kind of assay: Inhibition of quorum sensing system lasB in Pseudomonas aeruginosa transfected with lasB-gfp assessed as reduction of GFP production at 5 uM.
In assay [11] the test system is Pseudomonas aeruginosa. The experiment in a line: Antibiofilm activity against Pseudomonas aeruginosa PA14 assessed as inhibition of biofilm formation at 50 uM measured after 48 hrs relative to control. It is filed as functional.
The test system of assay [12] is Pseudomonas aeruginosa. Kind of assay: Inhibition of quorum sensing system lasB in Pseudomonas aeruginosa transfected with lasB-gfp assessed as reduction of GFP production at 10 to 15 uM. Particulars: dose 10-15 µM.

In brackets after ≈: the same amount, converted by molar mass. Activity calls are given as the source filed them. The rule behind the calls is not given here.

For orientation: IC50 means the concentration that gives 50% inhibition. The term inhibition denotes how much of the control response was suppressed. With `O=[N+]([O-])c1cc[n+]([O-])cc1`, in assay [1] (read-out: IC50), the IC50 was 27 µM. Further, the inhibition in assay [2] worked out at 66%. Also, the inhibition result with Pseudomonas aeruginosa [3] was “Active”.

By MIC is commonly meant the least concentration at which growth counts as inhibited. Consider `C=CCNC(=O)N1[C@H]2CN(Cc3ccccc3)C(=O)[C@H](C(C)CC)N2C(=O)CN1c1ccc(C)cc1` (some centres not stated), for which the inhibition entry in [4] and in [5] was “inactive” in each case. Further, the minimum inhibitory concentration (MIC) with Pseudomonas aeruginosa [6] is above 100 µM. The half-inhibitory concentration (IC50) in assay [1] (read-out: IC50) was determined as 7 µM. Also, the inhibition in assay [2] was determined as 49%. Moreover, the “inhibition (INH)” value in the assay with Pseudomonas aeruginosa [7] was found to be 20%. In addition, the inhibition result with Pseudomonas aeruginosa [8] was “Active”. In addition, the Ratio IC50 in the assay on Pseudomonas aeruginosa [9] is 2.

On to `C=CCNC(=O)N1[C@H]2CN(Cc3ccccc3)C(=O)[C@H](Cc3ccccc3)N2C(=O)CN1c1ccc(C)cc1`, for which the inhibition result in assay [4] and in assay [5] was “inactive” each time. In the assay with Pseudomonas aeruginosa [6], the MIC was above 100 µM. For the same compound, in assay [1] (read-out: IC50), the 50% inhibitory concentration (IC50) was determined as 4 µM. In addition, the inhibition in [2] turned out to be 62%. Further, the “inhibition (INH)” value in the assay with Pseudomonas aeruginosa [7] was found to be 80%. Moreover, in the assay on Pseudomonas aeruginosa [10], the inhibition entry was “Active”. In the assay with Pseudomonas aeruginosa [9], the Ratio IC50 was 2.

For `CCCCN1C[C@H]2N(C(=O)CN(c3ccc(C)cc3)N2C(=O)NCc2ccccc2)[C@@H](Cc2ccc(Cl)cc2)C1=O`, the inhibition result in [4] and in assay [5] was “inactive” in each case. In the assay with Pseudomonas aeruginosa [6], the MIC amounted to 100 µM (≈ 57.4 µg/mL). In addition, the IC50 entry in assay [1] is recorded as “Not Active”. In assay [2], the inhibition amounted to 12%.

In the case of `Cc1ccc(N2CC(=O)N3[C@@H](CC(C)C)C(=O)N(Cc4ccco4)C[C@@H]3N2C(=O)NCc2ccccc2)cc1`, the inhibition entry in [4] and in assay [5] was “inactive” in each case. The MIC with Pseudomonas aeruginosa [6] is above 150 µM. Further, in assay [1] (read-out: IC50), the IC50 came to 12 µM. For the same compound, in [2], the inhibition is 52%. Besides, in the assay on Pseudomonas aeruginosa [11], the inhibition at 50 µM amounted to 80%. Besides, the inhibition entry with Pseudomonas aeruginosa [12] is “Active”. Moreover, the Ratio IC50 in the assay with Pseudomonas aeruginosa [9] came to 2.

Consider `CCCCN1C[C@H]2N(C(=O)CN(c3ccc(C)cc3)N2C(=O)NCc2ccccc2)[C@@H](C(C)C)C1=O`, for which the inhibition entry in assay [4] and in [5] was “inactive” in each case. The MIC with Pseudomonas aeruginosa [6] was above 150 µM. In addition, the concentration for half-maximal inhibition (IC50) result in assay [1] is “Not Active”. In addition, the inhibition in assay [2] is 21%.
